The test deals with T1, human HSD1 (recombinant HSD1) (Homo sapiens, UniProt P28845).
T1 construct: made in house
T1 sequence (P28845 whole entry): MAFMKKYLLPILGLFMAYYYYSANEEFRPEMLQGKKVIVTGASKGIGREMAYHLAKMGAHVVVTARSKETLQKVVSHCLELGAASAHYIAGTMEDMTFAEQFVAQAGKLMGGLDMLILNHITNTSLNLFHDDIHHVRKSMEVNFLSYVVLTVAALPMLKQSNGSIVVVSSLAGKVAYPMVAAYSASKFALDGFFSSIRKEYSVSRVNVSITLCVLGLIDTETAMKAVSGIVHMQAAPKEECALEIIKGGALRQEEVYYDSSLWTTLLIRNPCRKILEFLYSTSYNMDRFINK
The test is described as follows: In vitro HSD1 activity inhibitory action, SPA of cortisone to cortisol conversion. The test is classed as biochemical. The settings on record: recombinant human HSD1 0.1 μg/ml, 500 μM NADPH, 16 nM 3H cortisone, room temperature 90 min, read-out: hHSD1 IC50. Put shortly:
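Baculovirus-expressed recombinant HSD1 (0.1 μg/ml) with 500 μM NADPH and 16 nM ³H-cortisone in 0.1% BSA/PBS, 90 min at room temperature. Stopped with anti-cortisol antibody, SPA beads and carbenoxolone, read after overnight incubation. Inhibition scaled between DMSO (0%) and 50 μM carbenoxolone (100%); IC50 by curve fitting.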
Consider `Cn1c(-c2ccc(N3CCOCC3)cc2)nnc1C1(c2ccccc2)CC1` [Ex. 1-46], for which the IC50 – broadly, the concentration at which inhibition is half-maximal – lay in the range of 10 to 1000 nM.

`Cn1c(-c2ccc(C(=O)N3CCCCC3)cc2Cl)nnc1C1(c2ccccc2)CC1` [Ex. 1-80]: the IC50 lay in the range of 10 to 1000 nM.

Consider `CN(c1ncc(Cl)cc1Cl)C1CCN(c2nnc(C3(c4ccccc4)CC3)n2C)CC1` [Ex. 2-41], for which the IC50 lay within 10 to 1000 nM.

With `Cn1c(-c2ccccc2Cl)nnc1C1(c2ccc(F)cc2)CC1` [Ex. 1-134], the IC50 was less than 10 nM.

For the compound `Cn1c(C2(c3ccccc3)CC2)nnc1[C@H]1CC[C@H](Oc2ccc(Cl)cc2Cl)CC1` [Ex. 1-11], the IC50 was in the range of 10 to 1000 nM.

Regarding `Cn1c(C2CCN(Cc3ccc(Cl)cc3Cl)CC2)nnc1C1(c2ccccc2)CC1` [Ex. 1-12], the IC50 was in the range of 10 to 1000 nM.

`Cn1c(-c2ccc(N3CCOCC3)cc2Cl)nnc1C1(c2ccccc2)CC1` [Ex. 1-90]: the IC50 was less than 10 nM.

Turning to `CC(C)n1c(N2CCC(Oc3ncc(Cl)cc3Cl)CC2)nnc1C1(c2ccccc2)CC1` [Ex. 2-80], the IC50 was less than 10 nM.

`Cn1c(-c2ccc(N3CCC(C(=O)N4CCOCC4)CC3)cc2Cl)nnc1C1(c2ccccc2)CC1` [Ex. 1-114]: the IC50 was less than 10 nM.

`Cn1c(-c2ccc(NC(=O)N3CCC(O)CC3)cc2Cl)nnc1C1(c2ccccc2)CC1` [Ex. 1-42]: the IC50 was in the range of 10 to 1000 nM.

Consider `CN(c1ccccn1)c1nnc(C2(c3ccccc3)CC2)n1C` [Ex. 2-95], for which the IC50 is less than 10 nM.

Consider `COc1cc(C(=O)O)ccc1-c1nnc(C2(c3ccccc3)CC2)n1C` [Ex. 1-124], for which the IC50 fell in the range of 10 to 1000 nM.

Regarding `CCn1c(N2CCC(Oc3ncc(Cl)cc3Cl)CC2)nnc1C1(c2ccccc2)CC1` [Ex. 2-79], the IC50 was less than 10 nM.

For `Cn1c(N2CCC(Oc3ncccc3Cl)CC2)nnc1C1(c2ccccc2)CC1` [Ex. 2-38], the IC50 was less than 10 nM.

Turning to `Cn1c(N2CCC(C)(C(=O)O)CC2)nnc1C1(c2ccccc2)CC1` [Ex. 2-69], the IC50 lay in the range of 10 to 1000 nM.

As to `Cn1c(-c2ccc(N3CCC(O)CC3)cc2Cl)nnc1C1(c2ccccc2)CC1` [Ex. 1-54], the half-inhibitory concentration (IC50) was less than 10 nM.

On to `COCCNC(=O)c1ccc(-c2nnc(C3(c4ccccc4)CC3)n2C)c(Cl)c1` [Ex. 1-85], for which the IC50 fell in the range of 10 to 1000 nM.

For `Cn1c(C2(c3ccccc3)CC2)nnc1C1(c2ccccc2)CC1` [Ex. 1-121], the IC50 is less than 10 nM.

Source of the values: patent publication US8153631B2, “Triazole compounds and uses related thereto” (Amgen Inc., priority 2003, dated 2012).
